From US4684664A, “Derivatives of β-(4-isocyano-1,2,3,4-diepoxycyclopentyl) acrylic acid” (Kureha Kagaku Kogyo Kabushiki Kaisha, priority 1984, dated 1987)
Values after ≈ are worked out from the molar mass of the structure shown.

How the values were obtained:
Format in all cases: cell-based
[1] = tested on: Staphylococcus aureus FDA 209PJc-1; assay: Antibacterial activity, agar-dilution MIC, organism No. 1; conditions: Staphylococcus aureus, FDA209PJC1; Organism No. 1, bouillon-agar; read-out: Minimum Inhibitory Concentration
Procedure, shortened: (§1)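 Dilution in agar (bouillon-agar base) is the format; activity is expressed as MIC, μg per ml medium.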

[2] = tested on: Staphylococcus aureus Terajima; assay: Antibacterial activity, agar-dilution MIC, organism No. 2; conditions: Staphylococcus aureus; Organism No. 2, bouillon-agar; read-out: Minimum Inhibitory Concentration
Procedure, shortened: as §1

[3] = tested on: Staphylococcus aureus MS 353; assay: Antibacterial activity, agar-dilution MIC, organism No. 3; conditions: Staphylococcus aureus, MS353; Organism No. 3, bouillon-agar; read-out: Minimum Inhibitory Concentration
Procedure, shortened: as §1

[4] = tested on: Streptococcus pyogenes Cook; assay: Antibacterial activity, agar-dilution MIC, organism No. 4; conditions: Streptococcus pyogenes; Organism No. 4, bouillon-agar; read-out: Minimum Inhibitory Concentration
Procedure, shortened: as §1

[5] = tested on: Escherichia coli NIHJ-JC-2; assay: Antibacterial activity, agar-dilution MIC, organism No. 5; conditions: Escherichia coli, NIHJJC2; Organism No. 5, bouillon-agar; read-out: Minimum Inhibitory Concentration
Procedure, shortened: as §1

[6] = tested on: Escherichia coli K12 C600 IAM 1264; assay: Antibacterial activity, agar-dilution MIC, organism No. 6; conditions: Escherichia coli, IAM1264; Organism No. 6, bouillon-agar; read-out: Minimum Inhibitory Concentration
Procedure, shortened: as §1

[7] = tested on: Klebsiella pneumoniae PCI-602; assay: Antibacterial activity, agar-dilution MIC, organism No. 7; conditions: Klebsiella pneumoniae, PCI602; Organism No. 7, bouillon-agar; read-out: Minimum Inhibitory Concentration
Procedure, shortened: as §1

[8] = tested on: Salmonella typhimurium IID 971; assay: Antibacterial activity, agar-dilution MIC, organism No. 8; conditions: Salmonella enterica; Organism No. 8, bouillon-agar; read-out: Minimum Inhibitory Concentration
Procedure, shortened: as §1

[9] = tested on: Salmonella typhi 901; assay: Antibacterial activity, agar-dilution MIC, organism No. 9; conditions: Salmonella enterica, TYPHI, read-out: Minimum Inhibitory Concentration
Procedure, shortened: as §1

[10] = tested on: Salmonella paratyphi-A 1015; assay: Antibacterial activity, agar-dilution MIC, organism No. 10; conditions: Salmonella enterica, PARATYPHI, read-out: Minimum Inhibitory Concentration
Procedure, shortened: as §1

[11] = tested on: Salmonella shottmuelleri 8006; assay: Antibacterial activity, agar-dilution MIC, organism No. 11; conditions: Salmonella, 8006; Organism No. 11, bouillon-agar; read-out: Minimum Inhibitory Concentration
Procedure, shortened: as §1

[12] = tested on: Salmonella enteritidis G 14; assay: Antibacterial activity, agar-dilution MIC, organism No. 12; conditions: Salmonella enterica, ENTERITIDIS; Organism No. 12, bouillon-agar; read-out: Minimum Inhibitory Concentration
Procedure, shortened: as §1

[13] = tested on: Serratia marcescens IAM 1184; assay: Antibacterial activity, agar-dilution MIC, organism No. 13; conditions: Serratia marcescens, IAM1184; Organism No. 13, bouillon-agar; read-out: Minimum Inhibitory Concentration
Procedure, shortened: as §1

[14] = tested on: Bacillus subtilis ATCC 6633; assay: Antibacterial activity, agar-dilution MIC, organism No. 14; conditions: Bacillus subtilis, ATCC6633; Organism No. 14, bouillon-agar; read-out: Minimum Inhibitory Concentration
Procedure, shortened: as §1

[15] = tested on: Pseudomonas aeruginosa IFO 3445; assay: Antibacterial activity, agar-dilution MIC, organism No. 15; conditions: Pseudomonas aeruginosa, IFO3445; Organism No. 15, bouillon-agar; read-out: Minimum Inhibitory Concentration
Procedure, shortened: as §1

[16] = tested on: Pseudomonas aeruginosa NCTC 10490; assay: Antibacterial activity, agar-dilution MIC, organism No. 16; conditions: Pseudomonas aeruginosa, NCTC10490; Organism No. 16, bouillon-agar; read-out: Minimum Inhibitory Concentration
Procedure, shortened: as §1

[17] = tested on: Pseudomonas aeruginosa PAO 1; assay: Antibacterial activity, agar-dilution MIC, organism No. 17; conditions: Pseudomonas aeruginosa, PAO1; Organism No. 17, bouillon-agar; read-out: Minimum Inhibitory Concentration
Procedure, shortened: as §1

[18] = tested on: Proteus morganii IFO 3848; assay: Antibacterial activity, agar-dilution MIC, organism No. 18; conditions: Morganella morganii, IFO3848; Organism No. 18, bouillon-agar; read-out: Minimum Inhibitory Concentration
Procedure, shortened: as §1

[19] = tested on: Proteus mirabilis IFO 3849; assay: Antibacterial activity, agar-dilution MIC, organism No. 19; conditions: Proteus mirabilis, IFO3849; Organism No. 19, bouillon-agar; read-out: Minimum Inhibitory Concentration
Procedure, shortened: as §1

[20] = tested on: Proteus vulgaris OX-19; assay: Antibacterial activity, agar-dilution MIC, organism No. 20; conditions: Proteus vulgaris, OX19; Organism No. 20, bouillon-agar; read-out: Minimum Inhibitory Concentration
Procedure, shortened: as §1

[21] = tested on: Proteus vulgaris HX-19; assay: Antibacterial activity, agar-dilution MIC, organism No. 21; conditions: Proteus vulgaris, HX19; Organism No. 21, bouillon-agar; read-out: Minimum Inhibitory Concentration
Procedure, shortened: as §1

[22] = tested on: Proteus rettgeri IFO 3850; assay: Antibacterial activity, agar-dilution MIC, organism No. 22; conditions: Providencia rettgeri, IFO3850; Organism No. 22, bouillon-agar; read-out: Minimum Inhibitory Concentration
Procedure, shortened: as §1

[23] = tested on: Enterobacter aerogenes ATCC 13048; assay: Antibacterial activity, agar-dilution MIC, organism No. 23; conditions: Klebsiella aerogenes, ATCC13048; Organism No. 23, bouillon-agar; read-out: Minimum Inhibitory Concentration
Procedure, shortened: as §1

[24] = tested on: Enterobacter cloacae 963; assay: Antibacterial activity, agar-dilution MIC, organism No. 24; conditions: Enterobacter cloacae, 963; Organism No. 24, bouillon-agar; read-out: Minimum Inhibitory Concentration
Procedure, shortened: as §1

[25] = tested on: Micrococcus luteus ATCC 9341; assay: Antibacterial activity, agar-dilution MIC, organism No. 25; conditions: Micrococcus luteus, ATCC9341; Organism No. 25, bouillon-agar; read-out: Minimum Inhibitory Concentration
Procedure, shortened: as §1

[26] = tested on: Streptococcus pyogenes IFO 3340; assay: Antibacterial activity, agar-dilution MIC, organism No. 26; conditions: Streptococcus pyogenes, IFO3340; Organism No. 26, bouillon-agar; read-out: Minimum Inhibitory Concentration
Procedure, shortened: as §1

[27] = tested on: Streptococcus faecium IFO 3826; assay: Antibacterial activity, agar-dilution MIC, organism No. 27; conditions: Enterococcus faecium, IFO3826; Organism No. 27, bouillon-agar; read-out: Minimum Inhibitory Concentration
Procedure, shortened: as §1

[28] = tested on: Mycoplasma pneumoniae IID817; assay: Antimycoplasmal activity, MIC by phenol red colour change, organism No. 28; conditions: Mycoplasma, IID817; Organism No. 28, PPLO broth + 1% glucose, 37° C.; read-out: Minimum Inhibitory Concentration (MIC)
Protocol: Mycoplasma pneumoniae IID817 was used as the test microorganism in a culture medium prepared by adding 1% of glucose to "PPLO broth (manufactured by Difco Co.) liquid culture medium" at 37° C. with phenol red as an indicator, thereby culturing the test microorganism.

[29] = tested on: Candida albicans IAM 4905; assay: Antifungal activity, agar-dilution MIC, organism No. 29; conditions: Candida albicans, IAM4905; Organism No. 29, bouillon-agar; read-out: Minimum Inhibitory Concentration
Procedure, shortened: as §1

[30] = tested on: Aspergillus niger IFO 6342; assay: Antifungal activity, agar-dilution MIC, organism No. 30; conditions: Aspergillus niger, IFO6342; Organism No. 30, bouillon-agar; read-out: Minimum Inhibitory Concentration
Procedure, shortened: as §1

[C-]#[N+]C12CC3(/C=C/C(=O)NOCc4ccccc4)OC3C1O2 (stereo not drawn) [compound 82]
MIC [1]: < 0.05 µg/mL
MIC [2]: 0.2 µg/mL (≈ 0.67 µM)
MIC [3]: < 0.05 µg/mL
MIC [4]: 0.78 µg/mL (≈ 2.61 µM)
MIC [5]: 12.5 µg/mL (≈ 41.9 µM)
MIC [6]: 12.5 µg/mL (≈ 41.9 µM)
MIC [7]: 0.39 µg/mL (≈ 1.31 µM)
MIC [8]: 6.25 µg/mL (≈ 21 µM)
MIC [9]: 0.78 µg/mL (≈ 2.61 µM)
MIC [10]: 0.78 µg/mL (≈ 2.61 µM)
MIC [11]: 0.78 µg/mL (≈ 2.61 µM)
MIC [12]: 0.78 µg/mL (≈ 2.61 µM)
MIC [13]: > 200 µg/mL
MIC [14]: 6.25 µg/mL (≈ 21 µM)
MIC [15]: > 200 µg/mL
MIC [16]: > 200 µg/mL
MIC [17]: > 200 µg/mL
MIC [18]: 0.78 µg/mL (≈ 2.61 µM)
MIC [19]: > 200 µg/mL
MIC [20]: 0.2 µg/mL (≈ 0.67 µM)
MIC [21]: 0.1 µg/mL (≈ 0.335 µM)
MIC [22]: > 200 µg/mL
MIC [23]: > 200 µg/mL
MIC [24]: > 200 µg/mL
MIC [25]: 12.5 µg/mL (≈ 41.9 µM)
MIC [26]: 1.56 µg/mL (≈ 5.23 µM)
MIC [27]: 1.56 µg/mL (≈ 5.23 µM)
MIC [28]: < 0.2 µg/mL
MIC [29]: 0.39 µg/mL (≈ 1.31 µM)
MIC [30]: 3.13 µg/mL (≈ 10.5 µM)

[C-]#[N+]C12CC3(/C=C/C(=O)ON4C(=O)CCC4=O)OC3C1O2 (stereo not drawn) [Compound No. 9]
MIC [1]: 50 µg/mL (≈ 172 µM)
MIC [2]: 50 µg/mL (≈ 172 µM)
MIC [3]: 50 µg/mL (≈ 172 µM)
MIC [4]: 100 µg/mL (≈ 345 µM)
MIC [5]: 50 µg/mL (≈ 172 µM)
MIC [6]: 50 µg/mL (≈ 172 µM)
MIC [7]: 200 µg/mL (≈ 689 µM)
MIC [8]: 50 µg/mL (≈ 172 µM)
MIC [9]: 50 µg/mL (≈ 172 µM)
MIC [10]: 50 µg/mL (≈ 172 µM)
MIC [11]: 50 µg/mL (≈ 172 µM)
MIC [12]: 50 µg/mL (≈ 172 µM)
MIC [13]: 200 µg/mL (≈ 689 µM)
MIC [14]: 200 µg/mL (≈ 689 µM)
MIC [15]: > 200 µg/mL
MIC [16]: > 200 µg/mL
MIC [17]: > 200 µg/mL
MIC [18]: 50 µg/mL (≈ 172 µM)
MIC [19]: 200 µg/mL (≈ 689 µM)
MIC [20]: 200 µg/mL (≈ 689 µM)
MIC [21]: 25 µg/mL (≈ 86.1 µM)
MIC [22]: > 200 µg/mL
MIC [23]: > 200 µg/mL
MIC [24]: > 200 µg/mL
MIC [25]: 25 µg/mL (≈ 86.1 µM)
MIC [26]: 100 µg/mL (≈ 345 µM)
MIC [27]: 50 µg/mL (≈ 172 µM)
MIC [28]: 6.25 µg/mL
MIC [29]: > 100 µg/mL
MIC [30]: > 100 µg/mL

[C-]#[N+]C12CC3(/C=C/C(=O)OCC(=O)c4ccc(Br)cc4)OC3C1O2 (stereo not drawn) [Compound No. 4, p-bromophenacylβ-substituted acrylate]
MIC [1]: 0.4 µg/mL (≈ 1.03 µM)
MIC [2]: 0.78 µg/mL (≈ 2 µM)
MIC [3]: 1.56 µg/mL (≈ 4 µM)
MIC [4]: 12.5 µg/mL (≈ 32 µM)
MIC [5]: 6.25 µg/mL (≈ 16 µM)
MIC [6]: < 0.05 µg/mL
MIC [7]: 6.25 µg/mL (≈ 16 µM)
MIC [8]: 6.25 µg/mL (≈ 16 µM)
MIC [9]: 3.13 µg/mL (≈ 8.02 µM)
MIC [10]: < 0.05 µg/mL
MIC [11]: < 0.05 µg/mL
MIC [12]: 3.13 µg/mL (≈ 8.02 µM)
MIC [13]: > 100 µg/mL
MIC [14]: 12.5 µg/mL (≈ 32 µM)
MIC [15]: > 100 µg/mL
MIC [16]: > 100 µg/mL
MIC [17]: > 100 µg/mL
MIC [18]: 100 µg/mL (≈ 256 µM)
MIC [19]: > 200 µg/mL
MIC [20]: 0.39 µg/mL (≈ 1 µM)
MIC [21]: 0.39 µg/mL (≈ 1 µM)
MIC [22]: 100 µg/mL (≈ 256 µM)
MIC [23]: 100 µg/mL (≈ 256 µM)
MIC [24]: 0.2 µg/mL (≈ 0.513 µM)
MIC [25]: < 0.05 µg/mL
MIC [26]: 6.25 µg/mL (≈ 16 µM)
MIC [27]: 12.5 µg/mL (≈ 32 µM)
MIC [28]: < 0.05 µg/mL
MIC [29]: 1.56 µg/mL (≈ 4 µM)
MIC [30]: 6.25 µg/mL (≈ 16 µM)
